Assay results: patent publication US8071768B2, “Alkylquinoline and alkylquinazoline kinase modulators” (Janssen Pharmaceutica, N.V., priority 2005, dated 2011)

These compounds were tested against T1, TrkB (Homo sapiens, UniProt Q16620) (assay: Trk B Fluorescence Polarization Kinase Assay). Conditions: uncertainty ±10%.
T1 construct: purchased Upstate 14-507M
Assay type: biochemical
In short: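 The TrkB kinase reaction (50 nM enzyme, 20 ug/mL poly Glu4Tyr, 150 uM ATP, 5 mM MgCl2, 1% DMSO) ran 30 minutes at room temperature and was stopped with EDTA. Phosphorylation was detected by fluorescence-polarization displacement of a fluorescein phosphopeptide from an anti-phosphotyrosine antibody. IC50 came from a variable-slope sigmoidal fit of triplicates.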

T1 sequence (Q16620 32-822): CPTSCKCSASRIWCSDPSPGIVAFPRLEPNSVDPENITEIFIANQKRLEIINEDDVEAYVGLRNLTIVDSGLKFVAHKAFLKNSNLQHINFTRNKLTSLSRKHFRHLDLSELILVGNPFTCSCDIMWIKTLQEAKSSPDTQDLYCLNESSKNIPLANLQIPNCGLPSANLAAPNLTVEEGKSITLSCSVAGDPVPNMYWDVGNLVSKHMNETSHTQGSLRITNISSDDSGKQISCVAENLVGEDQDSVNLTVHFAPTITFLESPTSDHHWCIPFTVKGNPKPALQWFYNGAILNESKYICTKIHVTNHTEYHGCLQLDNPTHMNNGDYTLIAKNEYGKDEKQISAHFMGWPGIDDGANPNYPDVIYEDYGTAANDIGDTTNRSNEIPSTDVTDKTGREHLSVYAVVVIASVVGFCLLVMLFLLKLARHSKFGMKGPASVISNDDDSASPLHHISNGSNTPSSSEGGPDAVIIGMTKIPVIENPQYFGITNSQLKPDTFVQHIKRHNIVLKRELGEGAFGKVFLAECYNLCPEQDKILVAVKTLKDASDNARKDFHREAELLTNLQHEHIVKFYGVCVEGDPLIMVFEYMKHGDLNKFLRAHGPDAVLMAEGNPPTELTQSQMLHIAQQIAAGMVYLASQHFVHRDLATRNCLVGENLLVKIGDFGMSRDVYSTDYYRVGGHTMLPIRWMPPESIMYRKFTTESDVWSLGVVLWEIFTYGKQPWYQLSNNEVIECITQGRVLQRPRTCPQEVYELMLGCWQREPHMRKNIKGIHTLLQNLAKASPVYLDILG

Going from CN(C)C(=O)N1CCN(CCCOc2ccc3c(C4CCN(C(=O)Nc5ccc(N6CCOCC6)cc5)CC4)ncnc3c2)CC1 [Compound 120, 4-(3-{4-[1-(4-Morpholin-4-yl-phenylcarbamoyl)-piperidin-4-yl]-quinazolin-7-yloxy}-propyl)-piperazine-1-carboxylic acid dimethylamide] to CN1CCCN(CCCOc2ccc3c(C4CCN(C(=O)Nc5ccc(N6CCOCC6)cc5)CC4)ncnc3c2)CC1 [Compound 125, 4-{7-[3-(4-Methyl-[1,4]diazepan-1-yl)-propoxy]-quinazolin-4-yl}-piperidine-1-carboxylic acid (4-morpholin-4-yl-phenyl)-amide], the IC50 rises from 16.7 µM to over 20 µM. The first is the more potent here.

Going from CC(C)Oc1ccc(NC(=O)N2CCC(c3ncnc4cc(OCCCOS(C)(=O)=O)ccc34)CC2)cc1 [Compound 121, Methanesulfonic acid 3-{4-[1-(4-isopropoxy-phenylcarbamoyl)-piperidin-4-yl]-quinazolin-7-yloxy}-propyl ester] to CS(=O)(=O)OCCCOc1ccc2c(C3CCN(C(=O)Nc4ccc(N5CCOCC5)cc4)CC3)ncnc2c1 [Compound 122, Methanesulfonic acid 3-{4-[1-(4-morpholin-4-yl-phenylcarbamoyl)-piperidin-4-yl]-quinazolin-7-yloxy}-propyl ester], the IC50 rises from 0.13 µM to 18.9 µM (150-fold).

O=C(Nc1ccc(N2CCOCC2)cc1)N1CCC(c2ncnc3cc(OCCCN4CCNCC4)ccc23)CC1 [Compound 123, 4-[7-(3-piperazin-1-yl-propoxy)-quinazolin-4-yl]-piperidine-1-carboxylic acid (4-morpholin-4-yl-phenyl)-amide] and O=C(Nc1ccc(N2CCOCC2)cc1)N1CCC(c2ncnc3cc(OCCCN4CCCC4)ccc23)CC1 [Compound 124, 4-[7-(3-Pyrrolidin-1-yl-propoxy)-quinazolin-4-yl]-piperidine-1-carboxylic acid (4-morpholin-4-yl-phenyl)-amide] cannot be ordered by IC50: over 20 µM for the first, over 20 µM for the second.

First: O=C(Nc1ccc(N2CCOCC2)cc1)N1CCC(c2ncnc3cc(N4CC[C@@H](O)C4)ccc23)CC1 [Compound 126, (R)-4-[7-(3-Hydroxy-pyrrolidin-1-yl)-quinazolin-4-yl]-piperidine-1-carboxylic acid (4-morpholin-4-yl-phenyl)-amide]
Second: O=C(Nc1ccc(N2CCOCC2)cc1)N1CCC(c2ncnc3cc(N4CC[C@H](O)C4)ccc23)CC1 [Compound 128, 4-[7-(3-Hydroxy-pyrrolidin-1-yl)-quinazolin-4-yl]-piperidine-1-carboxylic acid (4-morpholin-4-yl-phenyl)-amide]
The IC50 of the first is lower: 10.2 µM for the first, over 20 µM for the second.

Compared with CN1CCC(Oc2ccc3c(C4CCN(C(=O)Nc5ccc(N6CCOCC6)cc5)CC4)ncnc3c2)CC1 [Compound 127, 4-[7-(1-Methyl-piperidin-4-yloxy)-quinazolin-4-yl]-piperidine-1-carboxylic acid (4-morpholin-4-yl-phenyl)-amide], COC[C@H]1CCCN1c1ccc2c(C3CCN(C(=O)Nc4ccc(N5CCOCC5)cc4)CC3)ncnc2c1 [Compound 130, (R)-4-[7-(2-Methoxymethyl-pyrrolidin-1-yl)-quinazolin-4-yl]-piperidine-1-carboxylic acid (4-morpholin-4-yl-phenyl)-amide] is higher in IC50: 13.6 µM for the first, over 42 µM for the second.

First: O=C(Nc1ccc(N2CCCC2)cc1)N1CCC(c2ncnc3cc(N4CC[C@H](O)C4)ccc23)CC1 [Compound 129, (S)-4-[7-(3-Hydroxy-pyrrolidin-1-yl)-quinazolin-4-yl]-piperidine-1-carboxylic acid (4-pyrrolidin-1-yl-phenyl)-amide]
Second: CC(C)Oc1ccc(NC(=O)N2CCC(c3ncnc4ccc(N5CCN(C)CC5)cc34)CC2)cc1 [Compound 131, 4-[6-(4-Methyl-piperazin-1-yl)-quinazolin-4-yl]-piperidine-1-carboxylic acid (4-isopropoxy-phenyl)-amide]
The IC50 of the first is 1.7-fold lower: 3.11 µM for the first, 5.31 µM for the second. The first is the more potent here.
